Data published in patent US20110160123A1, “TARGETING THE EFFLUX SYSTEMS OF MYCOBACTERIUM TUBERCULOSIS” (THE UAB RESEARCH FOUNDATION, priority 2008, published 2011).
In brackets after ≈: the same amount, converted by molar mass. Read-outs that look alike come from different tables or passages of the source.

How the values were obtained:
[1] = test system: M. smegmatis ΔmspA mutant MN01; conditions: ΔmspA mutant compared with wild-type M. smegmatis; cited from earlier work
wild-type M. bovis BCG = assay: microbe, parasite or virus in culture; type: cell-based; conditions: for MIC: Mycobacterium tuberculosis variant bovis BCG, BCG, read-out: MIC WT
M. smegmatis WT (SMR5) = assay: microbe, parasite or virus in culture; type: cell-based; conditions: for MIC: Mycolicibacterium smegmatis
M. tuberculosis = assay: Minimal inhibitory concentration of copper on Hartmans de Bond medium; type: cell-based
E. coli = conditions: cited from earlier work
[2] = test system: M. smegmatis ms3747 mutant ML77; type: cell-based; conditions: ms3747 mutant versus wt M. smegmatis
[3] = test system: M. smegmatis SMR5 wt (pMS2) and rv0194-expressing strain (pML655); type: cell-based
[4] = test system: M. smegmatis SMR5 with rv0194 expression vector pML655; type: cell-based

Compound	MIC (wild-type M. bovis BCG)	MIC (M. smegmatis WT (SMR5); read-out: MIC WT)	other results
CC1(C)S[C@@H]2[C@H](NC(=O)[C@H](N)c3ccccc3)C(=O)N2[C@H]1C(=O)O [Ampicillin]	62.5 µg/mL (≈ 179 µM)	125 µg/mL (≈ 358 µM)	increased resistance toward ampicillin [1]: 16 fold
O=C(N[C@H](CO)[C@H](O)c1ccc([N+](=O)[O-])cc1)C(Cl)Cl [Chloramphenicol]	8 µg/mL (≈ 24.8 µM)	32 µg/mL (≈ 99 µM)	
CC[C@H]1OC(=O)[C@H](C)[C@@H](O[C@H]2C[C@@](C)(OC)[C@@H](O)[C@H](C)O2)[C@H](C)[C@@H](O[C@@H]2O[C@H](C)C[C@H](N(C)C)[C@H]2O)[C@](C)(O)C[C@@H](C)C(=O)[C@H](C)[C@@H](O)[C@]1(C)O [Erythromycin]		2.5 µg/mL (≈ 3.41 µM)	
CO[C@@H]1[C@@H](OC(N)=O)[C@@H](O)[C@H](Oc2ccc3c(O)c(NC(=O)c4ccc(O)c(CC=C(C)C)c4)c(=O)oc3c2C)OC1(C)C [Novobiocin]		4 µg/mL (≈ 6.53 µM)	
[H]/N=C(/N)N[C@H]1[C@H](O)[C@@H](O)[C@H](O[C@@H]2O[C@@H](C)[C@](O)(C=O)[C@H]2O[C@@H]2O[C@@H](CO)[C@H](O)[C@@H](O)[C@@H]2NC)[C@@H](N/C(N)=N\[H])[C@@H]1O [Streptomycin]	0.5 µg/mL (≈ 0.86 µM)		
CN(C)[C@@H]1C(=O)C(C(N)=O)=C(O)[C@@]2(O)C(=O)C3=C(O)c4c(O)cccc4[C@@](C)(O)[C@H]3C[C@@H]12 [Tetracyclin]			MIC WT (wild-type M. bovis BCG): 2 µg/mL (≈ 4.5 µM); MIC WT (M. smegmatis WT (SMR5)): 0.3 µg/mL (≈ 0.675 µM)
CN[C@H](CC(C)C)C(=O)N[C@H]1C(=O)N[C@@H](CC(N)=O)C(=O)N[C@H]2C(=O)N[C@H]3C(=O)N[C@H](C(=O)N[C@H](C(=O)O)c4cc(O)cc(O)c4-c4cc3ccc4O)[C@H](O)c3ccc(c(Cl)c3)Oc3cc2cc(c3O[C@@H]2O[C@H](CO)[C@@H](O)[C@H](O)[C@H]2O[C@H]2C[C@](C)(N)[C@H](O)[C@H](C)O2)Oc2ccc(cc2Cl)[C@H]1O [Vancomycin]	5 µg/mL (≈ 3.45 µM)	1.25 µg/mL (≈ 0.863 µM)	
[Cu] [copper]			minimal inhibitory concentration of copper (M. tuberculosis): less than 24 μM; minimal inhibitory concentration of copper (E. coli): ≈ 3 mM; copper concentration affecting growth, mutant relative to wt [2]: four-fold lower
CC[n+]1c(-c2ccccc2)c2cc(N)ccc2c2ccc(N)cc21 [ethidium bromide]			MIC (M. smegmatis WT (SMR5); read-out: MIC of ethidium bromide): 1.25 µg/mL
COC(=O)[C@H]1[C@H]2C[C@@H]3c4[nH]c5cc(OC)ccc5c4CCN3C[C@H]2C[C@@H](OC(=O)c2cc(OC)c(OC)c(OC)c2)[C@@H]1OC [reserpine]			growth with reserpine in the presence of ethidium bromide [3]: completely inhibited growth of both strains; accumulation of ethidium bromide after addition of reserpine [4]: quickly reached levels observed for wt M. smegmatis
